Measurements as given in patent publication US20130172342A1, “BENZIMIDAZOLE DERIVATIVES AS SELECTIVE BLOCKERS OF PERSISTENT SODIUM CURRENT” (Allergan, Inc., priority 2011, published 2013).

What was measured:
Assay type in all cases: cell-based
[1] = tested on: persistent sodium currents; assay: FLIPR sodium depletion/repletion assay (voltage-sensitive dyes); conditions: for IC50: 8-point concentration-response, antagonism of persistent current; for HTS % Block: single concentration HTS protocol, inhibition of the control response
Method: To identify compounds that block persistent sodium currents, they were tested in a sodium depletion/repletion assay in which changes in the fluorescence of voltage-sensitive dyes measured in a Fluorometric Imaging Plate Reader (FLIPR) were used to infer the effects of the compounds on persistent sodium currents. The compounds were first tested in a single concentration HTS protocol.

[2] = tested on: transient sodium currents; assay: IonWorks automated patch clamp, whole-cell voltage clamp; conditions: inhibition of transient sodium currents, read-out: IW IC50
Method: To determine the selectivity of effects of these compounds on the persistent current, the inhibition of transient sodium currents using an automated patch clamp was also tested for the compounds. For direct measurement of Na+ currents the IonWorks automated patch clamp system was used. The IonWorks system is a high-throughput electrophysiological instrument that performs whole-cell voltage clamp recordings in a 384-well plate format.

[3] = tested on: Nav1.3 or Nav1.6 channels; assay: gigohm-seal manual patch-clamp (MPC) in HEK cells stably transfected with sodium channels; conditions: for block of persistent versus transient sodium currents: FIG. 1, percentage of control current at steady state, n=3; for concentration effective in blocking 50% of the persistent current: HEK cells expressing Nav1.3 or Nav1.6, FIG. 1
Method: Nav1.3 or Nav1.6 channels were expressed in HEK cells, currents were measured using standard MPC electrophysiological techniques. Data are summarized from at least 3 experiments for each concentration tested and were normalized to the control currents before compound addition. Data are presented as the mean and standard error of the mean (n=3) of the percentage of the control current observed at steady state after compound addition.
Therefore, the efficacy and selectivity of the identified persistent current antagonists were verified using conventional gigohm-seal manual patch-clamp (MPC).
MPC experiments were conducted on human embroynic kidney (HEK) cells stably transfected with sodium channels were plated on coverslips. Cells were patch clamped using standard patch-clamp techniques (Hamill, O. P., A. Marty, et al., 1981 Pflugers Arch. 391:85-100). Once sufficient persistent current was established, buffer was introduced into the chamber at a constant flow rate of […] until the persistent current stabilized. Subsequent concentration-response experiments were conducted using this same flow rate. After application of the compound, current amplitude was monitored until equilibrium was established. The data recorded at equilibrium was normalized to the control current measured during perfusion with control buffer in the absence of a test compound. Adequate solution perfusion and gigohm seal stability were monitored throughout the experiment. The compound's antagonism of persistent or transient sodium currents is expressed as the IC5O of block for the respective current (see Table 1). Selectivity for block of the persistent current was calculated as the ratio of the IC5O for the transient current divided by the IC5O for the persistent current.
Direct measurement of the sodium current in cells expressing either Nav1.3 or
As shown for the exemplary compounds (compound #1 in Table 1 and Compound A shown below)

Structure (SMILES)	IC50 [1]	IC50 [2]	HTS % Block [1]	block of persistent versus transient sodium currents [3]	concentration effective in blocking 50% of the persistent current [3]
Cc1ccc(OCCn2c(CN3CCCCC3)nc3ccccc32)cc1	0.751 µM	> 30 µM	94.6%		
Clc1ccc(OCCn2c(CN3CCCCC3)nc3ccccc32)cc1	1.46 µM	27.8 µM	80.7%		
Cc1ccccc1OCCn1c(CN2CCCCC2)nc2ccccc21	5.56 µM	> 30 µM	93.6%		
C/C=C/c1ccc(OCCn2c(C(C)N3CCCCC3)nc3ccccc32)c(OC)c1 (stereo not drawn)	> 30 µM	> 30 µM	34.6%		
Cc1cccc(C)c1OCCn1c(CN2CCOCC2)nc2ccccc21	0.729 µM	> 30 µM	95.2%		
Cc1cc(C)cc(OCCn2c(CN3CCOCC3)nc3ccccc32)c1	1.47 µM	> 30 µM	92.6%		
Cc1ccccc1OCCn1c(CN2CCOCC2)nc2ccccc21	3.24 µM	> 30 µM	92.7%		
Cc1cccc(OCCn2c(CN3CCOCC3)nc3ccccc32)c1C	3.53 µM	> 30 µM	97.3%		
CCc1ccc(OCCn2c(CN3CCOCC3)nc3ccccc32)cc1	3.67 µM	30 µM	90.8%		
Cc1ccc(OCCn2c(CN3CCOCC3)nc3ccccc32)c(C)c1	4.52 µM	> 30 µM	79.3%		
COc1ccc(OCCn2c(C(C)N3CCOCC3)nc3ccccc32)cc1 (stereo not drawn)	9.81 µM	> 30 µM	92.9%		
C/C=C/c1ccc(OCCn2c(CN3CCOCC3)nc3ccccc32)c(OC)c1	18.2 µM	> 30 µM	75.7%		
COc1ccc(OCCn2c(CN3CCOCC3)nc3ccccc32)cc1	> 30 µM	> 30 µM	57.7%		
COc1ccccc1OCCn1c(CN2CCOCC2)nc2ccccc21	> 30 µM	> 30 µM	70.1%		
Cc1cccc(C)c1OCCn1c(CN2CCCCC2)nc2ccccc21 [Compound #1, 1-[2-(2,6-Dimethylphenoxy)ethyl]-2-piperidin-1-ylmethyl-1H-benzimidazole]	0.066 µM	> 30 µM		effective in blocking persistent sodium currents at concentrations that did not affect transient currents	low to submicromolar
Cc1ccc(C(C)C)c(OCCn2c(CN3CCOCC3)nc3ccccc32)c1 [Compound A]				effective in blocking persistent sodium currents at concentrations that did not affect transient currents	low to submicromolar

Further compounds by falling IC50 [1], results first:

IC50 [1]	IC50 [2]	Structure (SMILES)	HTS % Block [1]	block of persistent versus transient sodium currents [3]	concentration effective in blocking 50% of the persistent current [3]
16.3 µM	> 30 µM	CCn1c(C(C)N2CCCCC2)nc2ccccc21 (stereo not drawn)	90.6%		
7.85 µM	> 30 µM	Cc1cccc(OCCn2c(CN3CCOCC3)nc3ccccc32)c1	86.5%		
7.79 µM	> 30 µM	c1ccc(OCCn2c(CN3CCOCC3)nc3ccccc32)cc1	99.2%		
6.38 µM	> 30 µM	Cc1ccc(OCCn2c(CN3CCOCC3)nc3ccccc32)cc1	92.3%		
6.35 µM	> 30 µM	CC(C)N(C(=O)Cn1c(CN2CCCCC2)nc2ccccc21)c1ccccc1	84.2%		
5.12 µM	≥ 30 µM	C=CCc1ccc(OCCn2c(CN3CCOCC3)nc3ccccc32)c(OC)c1	70.7%		
2.3 µM	> 30 µM	Cc1ccc(C)c(OCCn2c(CN3CCOCC3)nc3ccccc32)c1	92.7%		
1.14 µM	> 30 µM	C=CCc1ccccc1OCCn1c(CN2CCOCC2)nc2ccccc21	91.5%		
0.95 µM	> 30 µM	COc1ccc(OCCn2c(C(C)N3CCCCC3)nc3ccccc32)cc1 (stereo not drawn)	95.2%		
0.852 µM	> 30 µM	Cc1cccc(C)c1OCCCn1c(CN2CCOCC2)nc2ccccc21	98.9%		
0.83 µM	> 30 µM	COc1ccccc1OCCCCn1c(CN2CCCCC2)nc2ccccc21	95.5%		
0.589 µM	23.4 µM	Cc1ccc(OCCn2c(CN3CCCCC3)nc3ccccc32)cc1C	80.1%		
0.559 µM	22.8 µM	Cc1ccc(C)c(OCCn2c(CN3CCCCC3)nc3ccccc32)c1	88.9%		
0.521 µM	> 30 µM	COc1cccc(OCCn2c(CN3CCCCC3)nc3ccccc32)c1	96.5%		
0.452 µM	13.8 µM	Cc1cccc(OCCn2c(CN3CCCCC3)nc3ccccc32)c1C	78.9%		
0.347 µM	> 30 µM	COc1ccccc1OCCn1c(CN2CCCCC2)nc2ccccc21	94.8%		
